Assays:
GST-Bcl-XL = GST-Bcl-XL (Homo sapiens, UniProt Q07817); experiment: TR-FRET binding assay, GST-Bcl-XL with F-Bak peptide probe; details: TR-FRET Binding Affinity
How it was run: (§1)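 Competitive TR-FRET: GST-fusion protein, fluorescent Bak peptide probe and Tb-labelled anti-GST antibody incubated with compound dilution series (starting 50 μM as 2× stock, 10% DMSO) for 3 h at RT. Excitation 340/35 nm; Ki derived via Wang's exact competitive-binding equation.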

GST-Bcl-2 = GST-Bcl-2 (Homo sapiens, UniProt P10415); experiment: TR-FRET binding assay, GST-Bcl-2 with F-Bak peptide probe; details: for Ki: TR-FRET Binding Affinity; for Binding selectivity ratio (Bcl-XL Ki/Bcl-2 Ki): TR-FRET, Bcl-XL Ki divided by Bcl-2 Ki
Sequence of GST-Bcl-2 (P10415 whole entry): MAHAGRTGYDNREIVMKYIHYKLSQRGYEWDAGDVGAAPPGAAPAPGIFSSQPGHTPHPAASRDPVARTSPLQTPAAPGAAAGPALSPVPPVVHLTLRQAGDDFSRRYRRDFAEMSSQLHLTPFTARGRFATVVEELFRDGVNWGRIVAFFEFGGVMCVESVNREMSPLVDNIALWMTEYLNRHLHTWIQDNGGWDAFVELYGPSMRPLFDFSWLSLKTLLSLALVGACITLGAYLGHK
How it was run: as §1

Sequence of GST-Bcl-XL (Q07817 whole entry, the tested form may be a part): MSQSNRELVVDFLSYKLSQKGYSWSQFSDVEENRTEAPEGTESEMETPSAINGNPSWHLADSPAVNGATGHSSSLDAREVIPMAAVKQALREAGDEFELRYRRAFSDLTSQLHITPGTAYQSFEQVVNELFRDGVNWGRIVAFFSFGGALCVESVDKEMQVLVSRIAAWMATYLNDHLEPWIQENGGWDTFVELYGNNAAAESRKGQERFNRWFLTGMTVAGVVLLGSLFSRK

Structure (SMILES): CC1(C)CCC(CN2CCN(c3ccc(C(=O)NS(=O)(=O)c4cnc(OC[C@@H]5C[C@H]6C[C@@H]5C[C@@]6(C)O)c(Cl)c4)c(Oc4cccc5[nH]ncc45)c3)CC2)=C(c2ccc(Cl)cc2)C1 [Example 520, N-[(5-chloro-6-{[(1R,2R,4R,5R)-5-hydroxy-5-methylbicyclo[2.2.1]hept-2-yl]methoxy}pyridin-3-yl)sulfonyl]-4-(4-{[2-(4-chlorophenyl)-4,4-dimethylcyclohex-1-en-1-yl]methyl}piperazin-1-yl)-2-(1H-indazol-4-yloxy)benzamide]
- Ki (GST-Bcl-XL): 15.4 nM
- Ki (GST-Bcl-2): < 0.01 nM
- Binding selectivity ratio (Bcl-XL Ki/Bcl-2 Ki) (GST-Bcl-2): >1537.8

Structure (SMILES): O=C(NS(=O)(=O)c1cnc(OCC2(F)CCOCC2)c(Cl)c1)c1ccc(N2CCN(CC3=C(c4ccc(Cl)cc4)CCC(F)(F)C3)CC2)cc1Oc1cccc2[nH]ncc12 [Example 521, N-({5-chloro-6-[(4-fluorotetrahydro-2H-pyran-4-yl)methoxy]pyridin-3-yl}sulfonyl)-4-(4-{[2-(4-chlorophenyl)-5,5-difluorocyclohex-1-en-1-yl]methyl}piperazin-1-yl)-2-(1H-indazol-4-yloxy)benzamide]
- Ki (GST-Bcl-XL): 4.67 nM
- Ki (GST-Bcl-2): < 0.01 nM
- Binding selectivity ratio (Bcl-XL Ki/Bcl-2 Ki) (GST-Bcl-2): >466.9

Structure (SMILES): O=C(NS(=O)(=O)c1cnc(OCC2(F)CCN(C3COC3)CC2)c(Cl)c1)c1ccc(N2CCN(CC3=C(c4ccc(Cl)cc4)CCC(F)(F)C3)CC2)cc1Oc1cccc2[nH]ncc12 [Example 522, N-[(5-chloro-6-{[4-fluoro-1-(oxetan-3-yl)piperidin-4-yl]methoxy}pyridin-3-yl)sulfonyl]-4-(4-{[2-(4-chlorophenyl)-5,5-difluorocyclohex-1-en-1-yl]methyl}piperazin-1-yl)-2-(1H-indazol-4-yloxy)benzamide]
- Ki (GST-Bcl-XL): 2.08 nM
- Ki (GST-Bcl-2): < 0.01 nM
- Binding selectivity ratio (Bcl-XL Ki/Bcl-2 Ki) (GST-Bcl-2): >207.9

Structure (SMILES): CC1(C)CCC(CN2CCN(c3ccc(C(=O)NS(=O)(=O)c4ccc(NCC5CCOCC5)c([N+](=O)[O-])c4)c(Oc4cccc5[nH]nnc45)c3)CC2)=C(c2ccc(Cl)cc2)C1 [Example 523, 2-(1H-benzotriazol-4-yloxy)-4-(4-{[2-(4-chlorophenyl)-4,4-dimethylcyclohex-1-en-1-yl]methyl}piperazin-1-yl)-N-({3-nitro-4-[(tetrahydro-2H-pyran-4-ylmethyl)amino]phenyl}sulfonyl)benzamide]
- Ki (GST-Bcl-XL): 49.4 nM
- Ki (GST-Bcl-2): < 0.01 nM
- Binding selectivity ratio (Bcl-XL Ki/Bcl-2 Ki) (GST-Bcl-2): >4944.4

Structure (SMILES): O=C(NS(=O)(=O)c1ccc(NCC2CCOCC2)c([N+](=O)[O-])c1)c1ccc(N2CCN(CC3=C(c4ccc(Cl)cc4)CCC(F)(F)C3)CC2)cc1Oc1cccc2[nH]ncc12 [Example 524, 4-(4-{[2-(4-chlorophenyl)-5,5-difluorocyclohex-1-en-1-yl]methyl}piperazin-1-yl)-2-(1H-indazol-4-yloxy)-N-({3-nitro-4-[(tetrahydro-2H-pyran-4-ylmethyl)amino]phenyl}sulfonyl)benzamide]
- Ki (GST-Bcl-XL): 22.2 nM
- Ki (GST-Bcl-2): < 0.01 nM
- Binding selectivity ratio (Bcl-XL Ki/Bcl-2 Ki) (GST-Bcl-2): >2218.4

Structure (SMILES): CC1(C)CCC(CN2CCN(c3ccc(C(=O)NS(=O)(=O)c4ccc(NC[C@H]5CC[C@](C)(O)CC5)c([N+](=O)[O-])c4)c(Oc4cccc5[nH]ncc45)c3)CC2)=C(c2ccc(Cl)cc2)C1 [Example 525, 4-(4-{[2-(4-chlorophenyl)-4,4-dimethylcyclohex-1-en-1-yl]methyl}piperazin-1-yl)-N-[(4-{[(trans-4-hydroxy-4-methylcyclohexyl)methyl]amino}-3-nitrophenyl)sulfonyl]-2-(1H-indazol-4-yloxy)benzamide]
- Ki (GST-Bcl-XL): 19 nM
- Ki (GST-Bcl-2): < 0.01 nM
- Binding selectivity ratio (Bcl-XL Ki/Bcl-2 Ki) (GST-Bcl-2): >1898.4

Structure (SMILES): CC1(C)CCC(CN2CCN(c3ccc(C(=O)NS(=O)(=O)c4ccc(NC[C@H]5CC[C@@](C)(O)CC5)c([N+](=O)[O-])c4)c(Oc4cccc5[nH]ncc45)c3)CC2)=C(c2ccc(Cl)cc2)C1 [Example 526, 4-(4-{[2-(4-chlorophenyl)-4,4-dimethylcyclohex-1-en-1-yl]methyl}piperazin-1-yl)-N-[(4-{[(cis-4-hydroxy-4-methylcyclohexyl)methyl]amino}-3-nitrophenyl)sulfonyl]-2-(1H-indazol-4-yloxy)benzamide]
- Ki (GST-Bcl-XL): 4.68 nM
- Ki (GST-Bcl-2): < 0.01 nM
- Binding selectivity ratio (Bcl-XL Ki/Bcl-2 Ki) (GST-Bcl-2): >467.9

Structure (SMILES): CC1(C)CCC(CN2CCN(c3ccc(C(=O)NS(=O)(=O)c4ccc(NC[C@H]5CN(C6CC6)CCO5)c([N+](=O)[O-])c4)c(Oc4cccc5[nH]nnc45)c3)CC2)=C(c2ccc(Cl)cc2)C1 [Example 527, 2-(1H-benzotriazol-4-yloxy)-4-(4-{[2-(4-chlorophenyl)-4,4-dimethylcyclohex-1-en-1-yl]methyl}piperazin-1-yl)-N-{[4-({[(2S)-4-cyclopropylmorpholin-2-yl]methyl}amino)-3-nitrophenyl]sulfonyl}benzamide]
- Ki (GST-Bcl-XL): 4.22 nM
- Ki (GST-Bcl-2): < 0.01 nM
- Binding selectivity ratio (Bcl-XL Ki/Bcl-2 Ki) (GST-Bcl-2): >421.9

Structure (SMILES): CC1(C)CCC(CN2CCN(c3ccc(C(=O)NS(=O)(=O)c4cnc(OCC5(F)CCN(C6COC6)CC5)c(Cl)c4)c(Oc4cccc5[nH]ncc45)c3)CC2)=C(c2ccc(Cl)cc2)C1 [Example 528, N-[(5-chloro-6-{[4-fluoro-1-(oxetan-3-yl)piperidin-4-yl]methoxy}pyridin-3-yl)sulfonyl]-4-(4-{[2-(4-chlorophenyl)-4,4-dimethylcyclohex-1-en-1-yl]methyl}piperazin-1-yl)-2-(1H-indazol-4-yloxy)benzamide]
- Ki (GST-Bcl-XL): 3.67 nM
- Ki (GST-Bcl-2): < 0.01 nM
- Binding selectivity ratio (Bcl-XL Ki/Bcl-2 Ki) (GST-Bcl-2): >366.9

Structure (SMILES): CC1(C)CCC(CN2CCN(c3ccc(C(=O)NS(=O)(=O)c4ccc(NC[C@H]5CN(C6CC6)CCO5)c([N+](=O)[O-])c4)c(Oc4cccc5[nH]ncc45)c3)CC2)=C(c2ccc(Cl)cc2)C1 [Example 529, 4-(4-{[2-(4-chlorophenyl)-4,4-dimethylcyclohex-1-en-1-yl]methyl}piperazin-1-yl)-N-{[4-({[(2S)-4-cyclopropylmorpholin-2-yl]methyl}amino)-3-nitrophenyl]sulfonyl}-2-(1H-indazol-4-yloxy)benzamide]
- Ki (GST-Bcl-XL): 8.28 nM
- Ki (GST-Bcl-2): < 0.01 nM
- Binding selectivity ratio (Bcl-XL Ki/Bcl-2 Ki) (GST-Bcl-2): >828.4

Structure (SMILES): CC1(C)CCC(CN2CCN(c3ccc(C(=O)NS(=O)(=O)c4ccc(NC[C@H]5CN(C6CC6)CCO5)c([N+](=O)[O-])c4)c(Oc4cccc5[nH]cnc45)c3)CC2)=C(c2ccc(Cl)cc2)C1 [Example 530, 2-(1H-benzimidazol-4-yloxy)-4-(4-{[2-(4-chlorophenyl)-4,4-dimethylcyclohex-1-en-1-yl]methyl}piperazin-1-yl)-N-{[4-({[(2S)-4-cyclopropylmorpholin-2-yl]methyl}amino)-3-nitrophenyl]sulfonyl}benzamide]
- Ki (GST-Bcl-XL): 76.7 nM
- Ki (GST-Bcl-2): < 0.01 nM
- Binding selectivity ratio (Bcl-XL Ki/Bcl-2 Ki) (GST-Bcl-2): >7666.0

Structure (SMILES): CC1(O)CCC(COc2ncc(S(=O)(=O)NC(=O)c3ccc(N4CCN(CC5=C(c6ccc(Cl)cc6)CCC(F)(F)C5)CC4)cc3Oc3cccc4[nH]ncc34)cc2Cl)CC1 (stereo not drawn) [Example 531, N-({5-chloro-6-[(trans-4-hydroxy-4-methylcyclohexyl)methoxy]pyridin-3-yl}sulfonyl)-4-(4-{[2-(4-chlorophenyl)-5,5-difluorocyclohex-1-en-1-yl]methyl}piperazin-1-yl)-2-(1H-indazol-4-yloxy)benzamide]
- Ki (GST-Bcl-XL): 12.6 nM
- Ki (GST-Bcl-2): < 0.01 nM
- Binding selectivity ratio (Bcl-XL Ki/Bcl-2 Ki) (GST-Bcl-2): >1257.8

Structure (SMILES): CC1(C)CCC(CN2CCN(c3ccc(C(=O)NS(=O)(=O)c4ccc(OCC5CCC(C)(O)CC5)c([N+](=O)[O-])c4)c(Oc4cccc5[nH]ncc45)c3)CC2)=C(c2ccc(Cl)cc2)C1 (stereo not drawn) [Example 532, 4-(4-{[2-(4-chlorophenyl)-4,4-dimethylcyclohex-1-en-1-yl]methyl}piperazin-1-yl)-N-({4-[(cis-4-hydroxy-4-methylcyclohexyl)methoxy]-3-nitrophenyl}sulfonyl)-2-(1H-indazol-4-yloxy)benzamide]
- Ki (GST-Bcl-XL): 9.81 nM
- Ki (GST-Bcl-2): < 0.01 nM
- Binding selectivity ratio (Bcl-XL Ki/Bcl-2 Ki) (GST-Bcl-2): >981.2

Structure (SMILES): CC1(C)CCC(CN2CCN(c3ccc(C(=O)NS(=O)(=O)c4ccc(OCC5CCC(C)(O)CC5)c([N+](=O)[O-])c4)c(Oc4cccc5[nH]ncc45)c3)CC2)=C(c2ccc(Cl)cc2)C1 (stereo not drawn) [Example 533, 4-(4-{[2-(4-chlorophenyl)-4,4-dimethylcyclohex-1-en-1-yl]methyl}piperazin-1-yl)-N-({4-[(trans-4-hydroxy-4-methylcyclohexyl)methoxy]-3-nitrophenyl}sulfonyl)-2-(H-indazol-4-yloxy)benzamide]
- Ki (GST-Bcl-XL): 10.4 nM
- Ki (GST-Bcl-2): < 0.01 nM
- Binding selectivity ratio (Bcl-XL Ki/Bcl-2 Ki) (GST-Bcl-2): >1044.3

Structure (SMILES): CC1(C)CCC(CN2CCN(c3ccc(C(=O)NS(=O)(=O)c4ccc(OCC5(F)CCN(C6COC6)CC5)c(C#N)c4)c(Oc4cccc5[nH]ncc45)c3)CC2)=C(c2ccc(Cl)cc2)C1 [Example 534, 4-(4-{[2-(4-chlorophenyl)-4,4-dimethylcyclohex-1-en-1-yl]methyl}piperazin-1-yl)-N-[(3-cyano-4-{[4-fluoro-1-(oxetan-3-yl)piperidin-4-yl]methoxy}phenyl)sulfonyl]-2-(1H-indazol-4-yloxy)benzamide]
- Ki (GST-Bcl-XL): 46 nM
- Ki (GST-Bcl-2): < 0.01 nM
- Binding selectivity ratio (Bcl-XL Ki/Bcl-2 Ki) (GST-Bcl-2): >4603.9

Structure (SMILES): CC1(C)CCC(CN2CCN(c3ccc(C(=O)NS(=O)(=O)c4ccc(OCC5CCC6(CC5)COC6)c([N+](=O)[O-])c4)c(Oc4cccc5[nH]ncc45)c3)CC2)=C(c2ccc(Cl)cc2)C1 [Example 535, 4-(4-{[2-(4-chlorophenyl)-4,4-dimethylcyclohex-1-en-1-yl]methyl}piperazin-1-yl)-2-(1H-indazol-4-yloxy)-N-{[3-nitro-4-(2-oxaspiro[3.5]non-7-ylmethoxy)phenyl]sulfonyl}benzamide]
- Ki (GST-Bcl-XL): 2.5 nM
- Ki (GST-Bcl-2): < 0.01 nM
- Binding selectivity ratio (Bcl-XL Ki/Bcl-2 Ki) (GST-Bcl-2): >250.5
